Data on 33 molecules can be found in patent US20240109868A1, “EP300/CBP MODULATOR, PREPARATION METHOD THEREFOR AND USE THEREOF” (Miracure Biotechnology Limited, priority 2022, published 2024).

Structures are written as SMILES.

The test system of experiment [1] is 22Rv1 Cell. Kind of experiment: 22RV1 cell growth inhibition, CellTiter-Glo, 72 h. It is filed as cell-based. The conditions noted are these: Homo sapiens, 22Rv1, 72 h, 22RV1 cells, 72 h culture. As to the method: (§1) 22RV1 or vCap cells were cultured in RPMI-1640 medium (10% fetal bovine serum and 100 units (per mL) of penicillin/streptomycin dual antibody were added to RPMI-1640) in a 37° C., 5% CO2 cell incubator. Cells at the logarithmic growth phase were inoculated onto a 96-well cell culture plate at 5×10^3 cells/100 μL/well and cultured overnight. Solutions of different concentrations of an active compound in DMSO were added, with the final concentration being 0.5% DMSO. The positive control was 1% TweeN2O, and the negative control was 0.5% DMSO. After 72 h of culture, an equal volume of CellTiter-Glo was added to each well, and the mixtures were mixed homogeneously by shaking for 2 min. The plate was let stand at room temperature for 10 min, and fluorescence signal values were read using a microplate reader. Data were analyzed using Prism 7.0 and graphs were generated. The values are shown as mean f SEM (N=2). […] The X-axis represents compound concentration (μM), and the Y-axis represents % inhibition.

In experiment [2] the test system is vCap Cell. Nature of the experiment: vCap cell growth inhibition, CellTiter-Glo, 72 h. It is filed as cell-based. Conditions: Homo sapiens, VCaP, 72 h, vCap cells, 72 h culture. How it is done:
as §1
On the technique in general: ATP-based viability assays read luminescence as a measure of living cells.

As a reminder, the IC50 is the midpoint of a concentration-inhibition curve. Low readings indicate inhibition by little substance, high ones a need for much substance. On to `CC(=O)N1Cc2cc(C3CCC([S@](C)(=N)=O)CC3)cc(N3CCCc4cc(-c5cnn(C)c5)c(C(F)F)cc43)c2C1` (stereo in doubt) [Compound M001330], for which the IC50 in experiment [1] and in experiment [2] was greater than 1000 nM throughout.

For the molecule `CC(=O)N1Cc2cc(N3CCOCC3)cc(N3CCCc4cc(-c5cnn(C)c5)c(C(F)F)cc43)c2C1` [Compound M001001], the IC50 in experiment [1] and in experiment [2] was greater than 1000 nM in each case.

As for `CC(=O)N1Cc2cc(N3CCNCC3)cc(N3CCCc4cc(-c5cnn(C)c5)c(C(F)F)cc43)c2C1` [Compound M001002], the IC50 in experiment [1] and in experiment [2] was greater than 1000 nM in each case.

`CC(=O)N1Cc2cc(N3CCN(C)CC3)cc(N3CCCc4cc(-c5cnn(C)c5)c(C(F)F)cc43)c2C1` [Compound M001003]: the IC50 in experiment [1] and in experiment [2] was greater than 1000 nM each time.

For the molecule `CC(=O)N1Cc2cc(N3CCSCC3)cc(N3CCCc4cc(-c5cnn(C)c5)c(C(F)F)cc43)c2C1` [Compound M001004], the IC50 in experiment [1] and in experiment [2] was greater than 1000 nM each time.

As to `CNC(=O)N1CCc2cc(N3CCOCC3)cc(N3CCCc4cc(-c5cnn(C)c5)c(C(F)F)cc43)c2C1` [Compound M001014, 8-(7-(difluoromethyl)-6-(1-methyl-1H-pyrazol-4-yl)-3,4-dihydroquinolin-1(2H)-yl)-N-methyl-6-morpholine-3,4-dihydroisoquinoline-2(1H)-carboxamide], the IC50 in experiment [1] and in experiment [2] was greater than 1000 nM each time.

`CNC(=O)N1CCc2cc(CN3CCCC(C(=O)O)C3)cc(N3CCCc4cc(-c5cnn(C)c5)c(C(F)F)cc43)c2C1` (centres unmarked) [Compound M001015]: the IC50 in experiment [1] and in experiment [2] was greater than 1000 nM throughout.

As for `CNC(=O)N1CCc2cc(CN3CCC(C(=O)O)CC3)cc(N3CCCc4cc(-c5cnn(C)c5)c(C(F)F)cc43)c2C1` [Compound M001016], the IC50 in experiment [1] and in experiment [2] was greater than 1000 nM throughout.

For the molecule `CNC(=O)N1CCc2cc(C3CCNCC3)cc(N3CCCc4cc(-c5cnn(C)c5)c(C(F)F)cc43)c2C1` [Compound M001017], the IC50 in experiment [1] and in experiment [2] was greater than 1000 nM in each case.

Regarding `CNC(=O)N1CCc2cc(C3CCN(C)CC3)cc(N3CCCc4cc(-c5cnn(C)c5)c(C(F)F)cc43)c2C1` [Compound M001018], the IC50 in experiment [1] and in experiment [2] was greater than 1000 nM in each case.

For the molecule `CNC(=O)N1CCc2cc(N3CCSCC3)cc(N3CCCc4cc(-c5cnn(C)c5)c(C(F)F)cc43)c2C1` [Compound M001019], the IC50 in experiment [1] and in experiment [2] was greater than 1000 nM in each case.

Turning to `CNC(=O)N1CCc2cc(N3CCS(=O)(=O)CC3)cc(N3CCCc4cc(-c5cnn(C)c5)c(C(F)F)cc43)c2C1` [Compound M001021], the IC50 in experiment [1] and in experiment [2] was greater than 1000 nM each time.

With `CN1CCN(c2cc3c(c(N4CCCc5cc(-c6cnn(C)c6)c(C(F)F)cc54)c2)CN(C)C(=O)C3)CC1` [Compound M001024], the IC50 in experiment [1] and in experiment [2] was greater than 1000 nM throughout.

`CN1Cc2c(cc(C3CCNCC3)cc2N2CCCc3cc(-c4cnn(C)c4)c(C(F)F)cc32)CC1=O` [Compound M001027]: the IC50 in experiment [1] and in experiment [2] was greater than 1000 nM in each case.

On to `CN1CCC(c2cc3c(c(N4CCCc5cc(-c6cnn(C)c6)c(C(F)F)cc54)c2)CN(C)C(=O)C3)CC1` [Compound M001028, 8-[7-(difluoromethyl)-6-(1-methylpyrazol-4-yl)-3,4-dihydro-2H-quinolin-1-yl]-2-methyl-6-(1-methyl-4-piperidyl)-1,4-dihydroisoquinolin-3-one], for which the IC50 in experiment [1] and in experiment [2] was greater than 1000 nM each time.

For `CC(=O)N1Cc2cc(C3CCN(C[C@H](C)O)CC3)cc(N3CCCc4cc(-c5cnn(C)c5)c(C(F)F)cc43)c2C1` [Compound M001030], the IC50 in experiment [1] and in experiment [2] was greater than 1000 nM throughout.

In the case of `CC(=O)N1Cc2cc(C3CC4CCC(C3)N4C)cc(N3CCCc4cc(-c5cnn(C)c5)c(C(F)F)cc43)c2C1` (centres unmarked) [Compound M001032], the concentration for half-maximal inhibition (IC50) in experiment [1] and in experiment [2] was greater than 1000 nM each time.

For the molecule `CNC(=O)N1CCc2cc(C3CC4CCC(C3)N4C)cc(N3CCCc4cc(-c5cnn(C)c5)c(C(F)F)cc43)c2C1` (centres unmarked) [Compound M001035], the IC50 in experiment [1] and in experiment [2] was greater than 1000 nM throughout.

Turning to `CC(=O)N1Cc2cc(C3CCNCC3)cc(N3CCCc4cc(-c5cnn(C)c5)c(C(F)F)cc43)c2C1` [Compound M001040], the IC50 in experiment [1] and in experiment [2] was greater than 1000 nM in each case.

Turning to `CC(=O)N1Cc2cc(C3CCN(C)CC3)cc(N3CCCc4cc(-c5cnn(C)c5)c(C(F)F)cc43)c2C1` [Compound M001041], the concentration for half-maximal inhibition (IC50) in experiment [1] and in experiment [2] was greater than 1000 nM throughout.

As for `CNC(=O)N1Cc2cc(C3CCNCC3)cc(N3CCCc4cc(-c5cnn(C)c5)c(C(F)F)cc43)c2C1` [Compound M001042], the IC50 in experiment [1] and in experiment [2] was greater than 1000 nM throughout.

For `CNC(=O)N1Cc2cc(C3CCN(C)CC3)cc(N3CCCc4cc(-c5cnn(C)c5)c(C(F)F)cc43)c2C1` [Compound M001043], the IC50 in experiment [1] and in experiment [2] was greater than 1000 nM each time.

Turning to `CNC(=O)N1CCc2cc(N3CCNCC3)cc(N3CCCc4cc(-c5cnn(C)c5)c(C(F)F)cc43)c2C1` [Compound M001044], the IC50 in experiment [1] and in experiment [2] was greater than 1000 nM each time.

For `CNC(=O)N1CCc2cc(N3CCN(C)CC3)cc(N3CCCc4cc(-c5cnn(C)c5)c(C(F)F)cc43)c2C1` [Compound M001045], the IC50 in experiment [1] and in experiment [2] was greater than 1000 nM throughout.

As for `CC(=O)N1Cc2cc(C3CCNC3)cc(N3CCCc4cc(-c5cnn(C)c5)c(C(F)F)cc43)c2C1` (centres unmarked) [Compound M001046], the IC50 in experiment [1] and in experiment [2] was greater than 1000 nM in each case.

On to `CC(=O)N1Cc2cc(C3CCN(C)C3)cc(N3CCCc4cc(-c5cnn(C)c5)c(C(F)F)cc43)c2C1` (centres unmarked) [Compound M001047], for which the IC50 in experiment [1] and in experiment [2] was greater than 1000 nM throughout.

With `CC(=O)N1Cc2cc(C3CCCNC3)cc(N3CCCc4cc(-c5cnn(C)c5)c(C(F)F)cc43)c2C1` (centres unmarked) [Compound M001048], the IC50 in experiment [1] and in experiment [2] was greater than 1000 nM throughout.

Turning to `CC(=O)N1Cc2cc(C3CCCN(C)C3)cc(N3CCCc4cc(-c5cnn(C)c5)c(C(F)F)cc43)c2C1` (centres unmarked) [Compound M001049], the IC50 in experiment [1] and in experiment [2] was greater than 1000 nM throughout.

On to `CNC(=O)N1CCc2cc(C3CCNC3)cc(N3CCCc4cc(-c5cnn(C)c5)c(C(F)F)cc43)c2C1` (centres unmarked) [Compound M001050], for which the IC50 in experiment [1] and in experiment [2] was greater than 1000 nM in each case.

With `CNC(=O)N1CCc2cc(C3CCN(C)C3)cc(N3CCCc4cc(-c5cnn(C)c5)c(C(F)F)cc43)c2C1` (centres unmarked) [Compound M001051], the IC50 in experiment [1] and in experiment [2] was greater than 1000 nM each time.

With `CC(=O)N1Cc2cc(C3CC4CCC(C3)N4)cc(N3CCCc4cc(-c5cnn(C)c5)c(C(F)F)cc43)c2C1` (centres unmarked) [Compound M001052], the IC50 in experiment [1] and in experiment [2] was greater than 1000 nM each time.

On to `CC(=O)N1Cc2cc(C3CCN(C(C)=O)C3)cc(N3CCCc4cc(-c5cnn(C)c5)c(C(F)F)cc43)c2C1` (centres unmarked) [Compound M001053], for which the IC50 in experiment [1] was greater than 1000 nM; in experiment [2] it was less than 1000 nM.

Molecule `CNC(=O)N1CCc2cc([C@H]3CC[C@H](N)CC3)cc(N3CCCc4cc(-c5cnn(C)c5)c(C(F)F)cc43)c2C1` [Compound M001319] returned an IC50 in experiment [1] greater than 1000 nM.
